# US6368788B1 (priority 1987, dated 2002)
# Where “and” joins values, the source holds several entries; their conditions need not be identical. Identical values can stand only once. Like-named read-outs stand apart in the source and are kept apart here. Marks after values point to notes of the source that are not given here.
# Experiments:
# [1] = test system: peripheral blood leukocytes
# Protocol: Twenty-eight patients (15) having the same disease profile and under conventional treatment formed a control group.
# The patients presented with the following diagnosed odontogenic infections: 18 with limited purulent infection(s), 7 with focal infection(s), 3 with diffuse infection(s). In addition, 3 patients presented with destructive osteomyelitis and 15 with plegmons mandible.
# All 15 children in the conventional treatment group were evaluated before therapy. Post-treatment measurements were performed with peripheral blood samples that were collected from all the conventional and L-Glu-L-Trp treated children. Fifteen healthy normal children were also evaluated to determine the normal mean values in the respective assays (Normal Healthy Control).
# [2] = test system: resident peritoneal macrophages; test: Innate immunity in CBA mice: thymic and spleen mass, splenic lymphocytes, resident peritoneal macrophages; type: in vivo; conditions: for Spleen / Thymus: CBA mice; for NBT Reduction, Induced: macrophages induced with complement opsonized zymosan; for NBT Reduction, Spontaneous / Neutral Red Uptake Absorbance: resident peritoneal macrophages
# [3] = test system: Staphylococci
# [4] = test system: E-RFC; test: In vitro sheep red blood cell rosette forming response of gastritis patients' T-lymphocytes; type: cell-based, human; conditions: 22 patients
# Source text: Twenty two patients (all men aged 18-30 years) suffering from chronic primary gastritis and gastro-duodenitis were entered into the trial. Diagnosis was based on physical examination, and clinical and laboratory investigations including roentgenoscopy and endoscopic examination of the stomach and duodenum. Patient entry criteria was further conditioned on the results of laboratory tests for i) pre-treatment immune indices (i.e., numbers of lymphocytes, T-, and B-lymphocytes, etc.; TABLE 46) and ii) the in vitro sheep red blood cell rosette forming response of T-lymphocytes to L-Glu-L-Trp, (i.e., whether in vitro incubation of patient peripheral blood lymphocytes with L-Glu-L-Trp increased the percentage of E-RFC). […] These twelve patients were entered into the trial.
# [5] = test system: influenza; conditions: vs control group
# Protocol: Sixty-six (66) hospitalized patients between the ages 18-20 years with confirmed influenza infections were admitted into the trial. Of the patients, 12 were determined to be severely infected, and the remaining 54 seriously infected and in need of hospitalization.
# [6] = children, periapical granulomas, L-Glu-L-Trp Combination, After Therapy
# [7] = After Combination L-Glu-L-Trp Therapy
# [8] = After L-Glu-L-Trp Combination Therapy
# [9] = Following Stage 2, Abscess and indurative acne
# [10] = Following Stage 2, Chronic abscess pyoderma
# [11] = Following Stage 2, Papular-pustular acne
# 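Wherever ATIII is given: hospitalized children with severe pneumonia, thrombohemorrhagic syndrome plus secondary immune deficiency, lab values taken before and after treatment versus healthy normal controls, comparison group given antibiotic therapy alone.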
# 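Wherever Clotting time (citrated whole blood-recalcified) is given: hospitalized children with severe pneumonia, thrombohemorrhagic syndrome plus secondary immune deficiency, lab values taken before and after treatment versus healthy normal controls, comparison group given antibiotic therapy alone.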
# 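Wherever FDP is given: hospitalized children with severe pneumonia, thrombohemorrhagic syndrome plus secondary immune deficiency, lab values taken before and after treatment versus healthy normal controls, comparison group given antibiotic therapy alone.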
# 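Wherever Fibrinogen Concentration is given: hospitalized children with severe pneumonia, thrombohemorrhagic syndrome plus secondary immune deficiency, lab values taken before and after treatment versus healthy normal controls, comparison group given antibiotic therapy alone.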
substance,measurement,setting,value
L-Glu-L-Trp,B-Lymphocytes % of Normal Value,[1]; [6],(108%)
same,B-Lymphocytes: No.,[1]; [6],0.67 ± 0.05 10^9/L
same,IgA,[1]; [6],1.09 ± 0.04 g/L
same,IgA % Normal Value,[1]; [6],(104%)
same,IgG,[1]; [6],10.78 ± 0.83 g/L
same,IgG % Normal Value,[1]; [6],(117%)
same,IgM,[1]; [6],0.93 ± 0.07 g/L
same,IgM % Normal Value,[1]; [6],(95%)
same,LMIR Response: % w/PHA,[1]; [6],14.65 ± 3.11 %
same,Leukocytes % Normal Value,[1]; [6],(97%)
same,Leukocytes: No.,[1]; [6],6.60 ± 0.39* 10^9/L
same,Lymphocytes % Normal Value,[1]; [6],(36%)
same,Lymphocytes: No.,[1]; [6],2.37 ± 0.21 10^9/L
same,T-Lymphocytes % of Normal Value,[1]; [6],(98%)
same,T-Lymphocytes: No.,[1]; [6],1.24 ± 0.11* 10^9/L
same,"T-lymphocyte counts, % of normal levels",[1]; following combination therapy,98%
same,B-Lymphocytes,[7],0.84 ± 0.06 ×10^9/L
same,B-Lymphocytes % Normal Value,[7],(175%)
same,IgA,[7],67 ± 4.8
same,IgA % Normal Value,[7],(163%)
same,IgG,[7],138 ± 5.6
same,IgG % Normal Value,[7],(97%)
same,IgM,[7],153 ± 6.9
same,IgM % Normal Value,[7],(89%)
same,Leukocytes,[7],11.0 ± 0.01 ×10^9/L
same,Leukocytes % Normal Value,[7],(98%)
same,Lymphocytes,[7],0.36 ± 0.01 ×10^9/L
same,Lymphocytes % Normal Value,[7],(116%)
same,T-Lymphocytes,[7],1.1 ± 0.01 ×10^9/L
same,T-Lymphocytes % Normal Value,[7],(167%)
same,ATIII,[8],85 ± 2.1 % of normal
same,Clotting time (citrated whole blood-recalcified),[8],129 ± 2.3^
same,FDP,[8],96 ± 6.7 µg/mL
same,Fibrinogen Concentration,[8],4.2 ± 0.4 g/L
same,Fibrinolytic Activity,[8],186 ± 11.5 min
same,Hagemann factor dependent fibrinolysis,[8],72 ± 6.8
same,Kaolin-Cephalin clotting time,[8],58 ± 1.2
same,Prothrombin time,[8],22 ± 0.1
same,Thrombotest,[8],33 ± 1.2
same,Whole blood clotting time,[8],465 ± 16.2 s
same,B cells Change (% peptide treated/% control),[2]; 0.01 mg/kg ip daily 6 days,1.0
same,Splenic lymphocytes: B cells (%),[2]; 0.01 mg/kg ip daily 6 days,50.8 ± 3.0%
same,Splenic lymphocytes: T cells (%),[2]; 0.01 mg/kg ip daily 6 days,41.2 ± 2.1 %
same,T cells Change (% peptide treated/% control),[2]; 0.01 mg/kg ip daily 6 days,↑ 1.1
same,Increase in neutral red uptake by macrophages,"[2]; 0.01 mg/kg, not statistically different from control",75%
same,Thymic weight,"[2]; 1 mg/kg and 0.01 mg/kg ip, 6 days",statistically significant decrease in thymic weight at both dosages
same,B cells Change (% peptide treated/% control),[2]; 1.0 mg/kg ip daily 6 days,1.0
same,Splenic lymphocytes: B cells (%),[2]; 1.0 mg/kg ip daily 6 days,52.4 ± 1.71%
same,Splenic lymphocytes: T cells (%),[2]; 1.0 mg/kg ip daily 6 days,34.8 ± 2.5%
same,T cells Change (% peptide treated/% control),[2]; 1.0 mg/kg ip daily 6 days,↓ 0.9
same,Spleen,[2]; 0.01 mg/kg ip daily 6 days,69.8 ± 2.6 mg
same,Thymus,[2]; 0.01 mg/kg ip daily 6 days,14.8 ± 1.6 mg
same,Spleen,[2]; 1.0 mg/kg ip daily 6 days,88.4 ± 4.4 mg
same,Thymus,[2]; 1.0 mg/kg ip daily 6 days,14.1 ± 1.3 mg
same,Increase in NBT reducing activity on induction with complement-opsonized zymosan,[2]; macrophages from treated animals,1.75 fold and 2 fold
same,"NBT Reduction, Induced",[2]; 0.01 mg/kg,0.205 ± 0.012 OD540
same,"NBT Reduction, Induced",[2]; 1 mg/kg,0.116 ± 0.008 OD540
same,"NBT Reduction, Spontaneous",[2]; 0.01 mg/kg,0.101 ± 0.002 OD540
same,Neutral Red Uptake Absorbance,[2]; 0.01 mg/kg,0.604 ± 0.031
same,"NBT Reduction, Spontaneous",[2]; 1 mg/kg,0.059 ± 0.003 OD540
same,Neutral Red Uptake Absorbance,[2]; 1 mg/kg,0.469 ± 0.016
same,"Blast Transformation, Con-A",[3]; After L-Glu-L-Trp Therapy,58.3 ± 3.9%
same,"Blast Transformation, HSA",[3]; After L-Glu-L-Trp Therapy,84.9 ± 5.5%
same,"Blast Transformation, PHA",[3]; After L-Glu-L-Trp Therapy,40.2 ± 3.9%
same,Number of Patients with Clinical Result: Improved,[3]; [9],1
same,Number of Patients with Clinical Result: Recovered,[3]; [9],4
same,Number of Patients with Clinical Result: Significantly Improved,[3]; [9],1
same,Number of Patients with Clinical Result: Recovered,[3]; [10],5
same,Number of Patients with Clinical Result: Significantly Improved,[3]; [10],2
same,Number of Patients with Clinical Result: Recovered,"[3]; Following Stage 2, Chronic furunculitis",10
same,Number of Patients with Clinical Result: Recovered,"[3]; Following Stage 2, Chronic relapsing folliculitis gravis",1
same,Number of Patients with Clinical Result: Recovered,"[3]; Following Stage 2, Chronic relapsing osteofolliculitis",3
same,Number of Patients with Clinical Result: Significantly Improved,"[3]; Following Stage 2, Chronic ulcerative pyoderma",2
same,Number of Patients with Clinical Result: Recovered,[3]; [11],4
same,Number of Patients with Clinical Result: Significantly Improved,[3]; [11],3
same,Number of Patients with Clinical Result: Improved,"[3]; Following Stage 2, Totals",1
same,Number of Patients with Clinical Result: No Effect,"[3]; Following Stage 2, Totals",0
same,Number of Patients with Clinical Result: Recovered,"[3]; Following Stage 2, Totals",27
same,Number of Patients with Clinical Result: Significantly Improved,"[3]; Following Stage 2, Totals",8
same,Number of Patients with Clinical Result: Worse,"[3]; Following Stage 2, Totals",0
same,B-Lymphocytes,[3]; L-Glu-L-Trp Treatment (n = 36),0.28 ± 0.04 ×10^9/L
same,B-Lymphocytes % Normal Value,[3]; L-Glu-L-Trp Treatment (n = 36),(57%)
same,B-Lymphocytes (%),[3]; L-Glu-L-Trp Treatment (n = 36),12.1 ± 1.5%
same,C3,[3]; L-Glu-L-Trp Treatment (n = 36),0.77 ± 0.02 g/L
same,"C3, % Normal Value",[3]; L-Glu-L-Trp Treatment (n = 36),(92%)
same,Erythrocyte Sed. Rate,[3]; L-Glu-L-Trp Treatment (n = 36),1.2 ± 1.4 mm
same,IgA,[3]; L-Glu-L-Trp Treatment (n = 36),2.40 ± 0.18 g/L
same,IgA % Normal Value,[3]; L-Glu-L-Trp Treatment (n = 36),(126%)
same,IgG,[3]; L-Glu-L-Trp Treatment (n = 36),15.5 ± 0.73 g/L
same,IgG % Normal Value,[3]; L-Glu-L-Trp Treatment (n = 36),(135%)
same,IgM,[3]; L-Glu-L-Trp Treatment (n = 36),1.25 ± 0.12 g/L
same,IgM % Normal Value,[3]; L-Glu-L-Trp Treatment (n = 36),(109%)
same,Imm. Cmplx.,[3]; L-Glu-L-Trp Treatment (n = 36),45.9 ± 4.9 Units
same,Leukocytes,[3]; L-Glu-L-Trp Treatment (n = 36),7.75 ± 0.33 ×10^9/L
same,Leukocytes % Normal Value,[3]; L-Glu-L-Trp Treatment (n = 36),(115%)
same,Lymphocytes,[3]; L-Glu-L-Trp Treatment (n = 36),2.41 ± 0.14 ×10^9/L
same,Lymphocytes % Normal Value,[3]; L-Glu-L-Trp Treatment (n = 36),(120%)
same,"Lymphocytes, %",[3]; L-Glu-L-Trp Treatment (n = 36),30.8 ± 1.4%
same,Monocytes,[3]; L-Glu-L-Trp Treatment (n = 36),0.43 ± 0.04 ×10^9/L
same,"Monocytes, %",[3]; L-Glu-L-Trp Treatment (n = 36),5.65 ± 0.40%
same,"Monocytes, % Normal Value",[3]; L-Glu-L-Trp Treatment (n = 36),(78%)
same,NK activity,[3]; L-Glu-L-Trp Treatment (n = 36),45.18 ± 2.55 % cytotox.
same,Neutrophils,[3]; L-Glu-L-Trp Treatment (n = 36),4.54 ± 0.25 10^9/L
same,"Neutrophils, %",[3]; L-Glu-L-Trp Treatment (n = 36),59.8 ± 1.5%
same,"Neutrophils, % Normal Value",[3]; L-Glu-L-Trp Treatment (n = 36),(103%)
same,Phag. Index,[3]; L-Glu-L-Trp Treatment (n = 36),5.31 ± 0.20
same,Phagocytic Cells,[3]; L-Glu-L-Trp Treatment (n = 36),2.36 ± 0.27 ×10^9/L
same,"Phagocytic Cells, % Normal Value",[3]; L-Glu-L-Trp Treatment (n = 36),(89%)
same,Surface Ig + B-Lym,[3]; L-Glu-L-Trp Treatment (n = 36),0.34 ± 0.05 ×10^9/L
same,"Surface Ig + B-Lym, %",[3]; L-Glu-L-Trp Treatment (n = 36),16.9 ± 1.7%
same,"Surface Ig + B-Lym, % Normal Value",[3]; L-Glu-L-Trp Treatment (n = 36),(117%)
same,T4^+/T8^+ Ratio,[3]; L-Glu-L-Trp Treatment (n = 36),1.32 ± 0.11
same,T-Lymphocytes,[3]; L-Glu-L-Trp Treatment (n = 36),1.68 ± 0.12 ×10^9/L
same,T-Lymphocytes % Normal Value,[3]; L-Glu-L-Trp Treatment (n = 36),(99%)
same,T-Lymphocytes (%),[3]; L-Glu-L-Trp Treatment (n = 36),69.3 ± 1.9 %
same,T-helper % Normal Value,[3]; L-Glu-L-Trp Treatment (n = 36),(71%)
same,T-helper (OKT4+),[3]; L-Glu-L-Trp Treatment (n = 36),0.46 ± 0.05 ×10^9/L
same,T-helper (OKT4+) %,[3]; L-Glu-L-Trp Treatment (n = 36),20.3 ± 2.9%
same,T-suppressor % Normal Value,[3]; L-Glu-L-Trp Treatment (n = 36),(95%)
same,T-suppressor (OKT8+),[3]; L-Glu-L-Trp Treatment (n = 36),0.39 ± 0.04 ×10^9/L
same,T-suppressor (OKT8+) %,[3]; L-Glu-L-Trp Treatment (n = 36),17.1 ± 1.9%
same,"T-lymphocytes, T4+ lymphocytes, T4+/T8+ ratio and NK activity relative to normal healthy volunteers",[3]; after treatment,> 70%
same,Patients with considerable (significant) improvement,[3]; combination therapy,8
same,Patients with improvement,[3]; combination therapy,1
same,Patients with clinical (complete) recovery,"[3]; combination therapy, 36 patients",27
same,Surface IgG+ lymphocytes,[3]; following Stage 2,0.19±0.023 ×10^9/L
same,Patients with clinically manifested increased antibiotic sensitivity in vivo,[3]; in vivo,55-75%
same,"Clinical recovery, papulous pustular acne",[3]; of 7 patients,4
same,"Complete clinical recovery, chronic abscessing pyoderma",[3]; of 7 patients,5
same,"Clinical recovery, abscessing and indurative acne",[3]; of 10 patients,6
same,Patients with a positive in vitro response (increased E-RFC),[4],55%
same,Lower incidence of respiratory complications,[5],3.5 times
